From ChEMBL document CHEMBL1201862, “PubChem BioAssay data set” (2004)
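Assay format: 96-well plates, 48-hour exposure. Abbreviation: GI50, concentration required for 50% inhibition of growth.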 The source made the active and inactive calls. Cut-off read from the data, not from the text of the source: active = GI50 up to about 1.1 µM and inactive = higher.

Legend:
Assay in all cases: DTP human tumour cell line panel, 48 h
[1] = system: LOX IMVI
[2] = system: OVCAR-4
[3] = system: MDA-MB-231
[4] = system: IGROV-1
[5] = system: DU-145
[6] = system: RPMI-8226
[7] = system: HCT-15
[8] = system: SF-268
[9] = system: EKVX
[10] = system: A498
[11] = system: OVCAR-8
[12] = system: A549
[13] = system: SK-MEL-5
[14] = system: UACC-62
[15] = system: COLO 205
[16] = system: HOP-62
[17] = system: UO-31
[18] = system: U-251
[19] = system: ACHN
[20] = system: MCF7
[21] = system: SNB-19
[22] = system: Malme-3M
[23] = system: HCT-116
[24] = system: SW-620
[25] = system: Hs-578T
[26] = system: UACC-257
[27] = system: SN12C
[28] = system: HT-29
[29] = system: MDA-N
[30] = system: NCI-H226
[31] = system: MDA-MB-435
[32] = system: CAKI-1
[33] = system: PC-3
[34] = system: MOLT-4
[35] = system: NCI-H23
[36] = system: NCI/ADR-RES
[37] = system: NCI-H460
[38] = system: HCC 2998
[39] = system: OVCAR-5
[40] = system: SK-MEL-28
[41] = system: K562
[42] = system: SF-539
[43] = system: BT-549
[44] = system: SNB-75
[45] = system: SR
[46] = system: OVCAR-3
[47] = system: SK-MEL-2
[48] = system: CCRF-CEM
[49] = system: TK-10
[50] = system: 786-0
[51] = system: NCI-H522
[52] = system: SK-OV-3
[53] = system: HL-60
[54] = system: T47D
[55] = system: RXF 393
[56] = system: SF-295
[57] = system: M14
[58] = system: HOP-92
[59] = system: KM12

## O=C1c2ccccc2C(=O)c2c(NCC(O)CO)ccc(NCC(O)CO)c21 (stereo not given)
[1]
  GI50: 28.3 µM (inactive)
[2]
  GI50: > 100 µM (inactive)
[3]
  GI50: 97.9 µM (inactive)
[4]
  GI50: 49.4 µM (inactive)
[5]
  GI50: 38.6 µM (inactive)
[6]
  GI50: 65 µM (inactive)
[7]
  GI50: 43.7 µM
[8]
  GI50: 89.1 µM (inactive)
[9]
  GI50: > 100 µM (inactive)
[10]
  GI50: > 100 µM (inactive)
[11]
  GI50: 69.2 µM (inactive)
[12]
  GI50: > 100 µM (inactive)
[13]
  GI50: 33.7 µM (inactive)
[14]
  GI50: 51.5 µM (inactive)
[15]
  GI50: 37.2 µM (inactive)
[16]
  GI50: 61.1 µM (inactive)
[17]
  GI50: 17.8 µM (inactive)
[18]
  GI50: 61.2 µM (inactive)
[19]
  GI50: 40.5 µM (inactive)
[20]
  GI50: 21.3 µM (inactive)
[21]
  GI50: 43.2 µM (inactive)
[22]
  GI50: 91.2 µM (inactive)
[23]
  GI50: 67 µM (inactive)
[24]
  GI50: 45.9 µM (inactive)
[25]
  GI50: 68.7 µM (inactive)
[26]
  GI50: > 100 µM (inactive)
[27]
  GI50: 71.3 µM (inactive)
[28]
  GI50: 56.6 µM (inactive)
[29]
  GI50: 61.2 µM (inactive)
[30]
  GI50: 51.4 µM (inactive)
[31]
  GI50: > 100 µM (inactive)
[32]
  GI50: 56.6 µM (inactive)
[33]
  GI50: 78 µM (inactive)
[34]
  GI50: 32.2 µM (inactive)
[35]
  GI50: 96.2 µM (inactive)
[36]
  GI50: > 100 µM (inactive)
[37]
  GI50: 61 µM (inactive)
[38]
  GI50: 72.6 µM (inactive)
[39]
  GI50: > 100 µM (inactive)
[40]
  GI50: > 100 µM (inactive)
[41]
  GI50: 35.2 µM (inactive)
[42]
  GI50: 62.1 µM (inactive)
[43]
  GI50: 75.7 µM (inactive)
[44]
  GI50: 56.4 µM (inactive)
[45]
  GI50: 61.4 µM (inactive)
[46]
  GI50: 79.6 µM (inactive)
[47]
  GI50: 24.4 µM (inactive)
[48]
  GI50: 41.4 µM (inactive)
[49]
  GI50: 72.4 µM (inactive)
[50]
  GI50: 69.7 µM (inactive)
[51]
  GI50: 67.3 µM (inactive)
[52]
  GI50: 40.9 µM (inactive)
[53]
  GI50: 63 µM (inactive)
[54]
  GI50: > 100 µM (inactive)

## O=C(/C=C1\N=C(c2ccccc2)N(c2nc3c(Cl)cc(Cl)cc3s2)C1=O)/C=C/c1ccccc1
[1]
  GI50: > 100 µM (inactive)
[2]
  GI50: > 100 µM (inactive)
[55]
  GI50: 63.1 µM (inactive)
[3]
  GI50: > 100 µM (inactive)
[4]
  GI50: > 100 µM (inactive)
[5]
  GI50: > 100 µM (inactive)
[56]
  GI50: > 100 µM (inactive)
[6]
  GI50: 63 µM (inactive)
[7]
  GI50: 73.1 µM
[8]
  GI50: > 100 µM (inactive)
[9]
  GI50: > 100 µM (inactive)
[10]
  GI50: 67.5 µM (inactive)
[11]
  GI50: > 100 µM (inactive)
[12]
  GI50: > 100 µM (inactive)
[13]
  GI50: 56.4 µM (inactive)
[14]
  GI50: 54.7 µM (inactive)
[15]
  GI50: 47.6 µM (inactive)
[16]
  GI50: > 100 µM (inactive)
[17]
  GI50: > 100 µM (inactive)
[18]
  GI50: > 100 µM (inactive)
[19]
  GI50: > 100 µM (inactive)
[20]
  GI50: 63 µM (inactive)
[21]
  GI50: > 100 µM (inactive)
[22]
  GI50: > 100 µM (inactive)
[23]
  GI50: 97.5 µM (inactive)
[57]
  GI50: > 100 µM (inactive)
[24]
  GI50: 72.3 µM (inactive)
[25]
  GI50: > 100 µM (inactive)
[26]
  GI50: > 100 µM (inactive)
[27]
  GI50: > 100 µM (inactive)
[28]
  GI50: > 100 µM (inactive)
[58]
  GI50: > 100 µM (inactive)
[29]
  GI50: 45.8 µM (inactive)
[31]
  GI50: 54.3 µM (inactive)
[32]
  GI50: > 100 µM (inactive)
[33]
  GI50: 69.3 µM (inactive)
[34]
  GI50: 52.1 µM (inactive)
[35]
  GI50: > 100 µM (inactive)
[36]
  GI50: 83.4 µM (inactive)
[37]
  GI50: > 100 µM (inactive)
[38]
  GI50: > 100 µM (inactive)
[39]
  GI50: > 100 µM (inactive)
[40]
  GI50: > 100 µM (inactive)
[41]
  GI50: 35 µM (inactive)
[43]
  GI50: > 100 µM (inactive)
[44]
  GI50: 36.5 µM (inactive)
[46]
  GI50: 75.3 µM (inactive)
[47]
  GI50: > 100 µM (inactive)
[48]
  GI50: 46.7 µM (inactive)
[49]
  GI50: > 100 µM (inactive)
[50]
  GI50: > 100 µM (inactive)
[59]
  GI50: > 100 µM (inactive)
[51]
  GI50: 45.1 µM (inactive)
[52]
  GI50: > 100 µM (inactive)
[53]
  GI50: 91 µM (inactive)
[54]
  GI50: 24.9 µM (inactive)
